Experiment [1] has as its target T1, IDO1 (Homo sapiens, UniProt P14902). As to the kind of experiment: IDO1 Cellular Assay in HeLa Cells Stimulated with IFNγ. The format is cell-based.
The target of experiment [2] is T1, IDO1. Nature of the experiment: IDO1 Human Whole Blood Assay. The format is cell-based. On the set-up: Human whole blood was drawn in sodium heparin coated tubes from healthy internal donors; from tissue; host or cells: human whole blood from healthy donors, stimulated with LPS and IFNγ. The note with it: LPS and IFNγ stimulated.
[3] abbreviates: about 48 hours, read-out: Hela IC50.
Where [4] appears, read: value in running text, read-out: Hela IC50.

The values below come from US12275729B2 (Merck Sharp & Dohme LLC, priority 2017, dated 2025).

One may read the IC50 as the midpoint of a concentration-inhibition curve.

T1 sequence (P14902 whole entry): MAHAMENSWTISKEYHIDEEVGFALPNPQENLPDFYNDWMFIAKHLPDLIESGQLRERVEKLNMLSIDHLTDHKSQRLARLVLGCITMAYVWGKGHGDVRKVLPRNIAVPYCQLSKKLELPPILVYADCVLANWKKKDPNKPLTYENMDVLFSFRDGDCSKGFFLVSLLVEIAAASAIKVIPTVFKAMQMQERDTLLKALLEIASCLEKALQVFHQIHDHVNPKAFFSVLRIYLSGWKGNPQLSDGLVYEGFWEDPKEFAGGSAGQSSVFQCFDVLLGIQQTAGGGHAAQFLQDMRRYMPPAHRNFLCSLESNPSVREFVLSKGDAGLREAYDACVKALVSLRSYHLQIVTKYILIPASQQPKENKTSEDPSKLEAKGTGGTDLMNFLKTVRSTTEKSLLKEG

In the case of `Cc1cccc(N2CCCc3nc(C4(C(=O)Nc5ccc(Cl)cc5)CCC4)ccc32)n1` [Example 404, N-(4-chlorophenyl)-1-(5-(6-methylpyridin-2-yl)-5,6,7,8-tetrahydro-1,5-naphthyridin-2-yl)cyclobutane-1-carboxamide], the IC50 in experiment [1] (setting [3]) is 3.3 nM; in experiment [2], 20 nM.
Regarding `Cc1cccc(N2CCCc3nc(C4(NC(=O)c5ccc(Cl)cc5)CCC4)ccc32)n1` [Example 405, 4-chloro-N-(1-(5-(6-methylpyridin-2-yl)-5,6,7,8-tetrahydro-1,5-naphthyridin-2-yl)cyclobutyl)benzamide], the IC50 in experiment [1] (setting [3]) was 1.91 nM; in experiment [2], 42 nM.
For `Cc1cncc(N2CCCc3nc(C4(NC(=O)c5ccc(Cl)cc5)CCC4)ccc32)c1` [Example 406, 4-chloro-N-(1-(5-(5-methylpyridin-3-yl)-5,6,7,8-tetrahydro-1,5-naphthyridin-2-yl)cyclobutyl)benzamide], in that order: 3.18 nM and 2980 nM.
For `O=C(Nc1ccc(Cl)cc1)C1(c2ccc3c(n2)CCCN3c2cccc(C3CC3)n2)CCC1` [Example 408, N-(4-chlorophenyl)-1-(5-(6-cyclopropylpyridin-2-yl)-5,6,7,8-tetrahydro-1,5-naphthyridin-2-yl)cyclobutane-1-carboxamide], in that order: 11.5 nM and 2980 nM.
Regarding `O=C(OC1CC1)N1CCCc2nc(C3(C(=O)Nc4ccc(F)cc4)CCC3)ccc21` [Example 410, cyclopropyl 6-(1-((4-fluorophenyl)carbamoyl)cyclobutyl)-3,4-dihydro-1,5-naphthyridine-1(2H)-carboxylate], the figures for the IC50 in experiment [1] (read-out: Hela IC50) and in experiment [2] were 0.79 nM and 70 nM, respectively.
On the same counts, the results for `COCCOC(=O)N1CCCc2nc(C3(NC(=O)c4ccc(Cl)cc4)CCC3)ccc21` [Example 413, 2-methoxyethyl 6-(1-(4-chlorobenzamido)cyclobutyl)-3,4-dihydro-1,5-naphthyridine-1(2H)-carboxylate] are 3.79 nM and 17 nM.
On the same counts, the results for `Cc1nccc(N2CCCc3nc(C4(C(=O)Nc5ccc(F)cc5)CC5(CC5)C4)ccc32)n1` [Example 415, 2-(5-((4-fluorophenyl)carbamoyl)spiro [2.3]hexan-5-yl)-5-(2-methylpyrimidin-4-yl)-5,6,7,8-tetrahydro-1,5-naphthyridin-1-ium 2,2,2-trifluoroacetate] are 3.19 nM and 18 nM.
As for `O=C(OC1CC1)N1CCCc2nc(C3(C(=O)Nc4ccc(F)cc4)CC4(CC4)C3)ccc21` [Example 417, cyclopropyl 6-(5-((4-fluorophenyl)carbamoyl)spiro[2.3]hexan-5-yl)-3,4-dihydro-1,5-naphthyridine-1(2H)-carboxylate], the results for the IC50 in experiment [1] (read-out: Hela IC50) and in experiment [2] were 0.73 nM and 12 nM, respectively.
For `O=C(OC1CC1)N1CCCc2nc(C3(C(=O)Nc4ccc(Cl)nc4)CC4(CC4)C3)ccc21` [Example 418, 2-(5-((6-chloropyridin-3-yl)carbamoyl)spiro[2.3]hexan-5-yl)-5-(cyclopropoxycarbonyl)-5,6,7,8-tetrahydro-1,5-naphthyridin-1-ium 2,2,2-trifluoroacetate], in that order: 1.35 nM and 239 nM.
`Cc1nccc(N2CCCc3nc(C4(C(=O)Nc5ccc(F)cc5)CC(F)C4)ccc32)n1` (centres unmarked) [Example 419, 2-(3-fluoro-1-((4-fluorophenyl)carbamoyl)cyclobutyl)-5-(2-methylpyrimidin-4-yl)-5,6,7,8-tetrahydro-1,5-naphthyridin-1-ium 2,2,2-trifluoroacetate]: the results for the concentration for half-maximal inhibition (IC50) in experiment [1] (read-out: Hela IC50), in experiment [1] (setting [4]) and in experiment [2] were 1.09 nM, 1 nM and 69 nM, respectively.
For `Cc1nccc(N2CCCc3nc(C4(C(=O)Nc5ccc(F)cc5)CC(F)(F)C4)ccc32)n1` [Example 420, 3,3-difluoro-N-(4-fluorophenyl)-1-(5-(2-methylpyrimidin-4-yl)-5,6,7,8-tetrahydro-1,5-naphthyridin-2-yl)cyclobutanecarboxamide], in that order: 1.09 nM, 1 nM and 12 nM.
On to `Cc1nccc(N2CCCc3nc(C4(C(=O)Nc5ccc(F)cc5)CC(OCc5ccccc5)C4)ccc32)n1` (centres unmarked) [Example 423, 2-(3-(benzyloxy)-1-((4-fluorophenyl)carbamoyl)cyclobutyl)-5-(2-methylpyrimidin-4-yl)-5,6,7,8-tetrahydro-1,5-naphthyridin-1-ium 2,2,2-trifluoroacetate], for which the IC50 in experiment [1] (read-out: Hela IC50) came to 6.84 nM; in experiment [1] (setting [4]), 6.8 nM; in experiment [2] it was 26 nM.
As for `O=C(N[C@H](c1ccc2c(n1)CCCN2C(=O)C1CC1)C(F)(F)F)c1ccc(F)cc1` [Example 424, (R)—N-(1-(5-(cyclopropanecarbonyl)-5,6,7,8-tetrahydro-1,5-naphthyridin-2-yl)-2,2,2-trifluoroethyl)-4-fluorobenzamide], the IC50 in experiment [1] (read-out: Hela IC50) is 44.8 nM; in experiment [2] it was 143 nM.
For `O=C(N[C@@H](c1ccc2c(n1)CCCN2C(=O)C1CC1)C(F)(F)F)c1ccc(F)cc1` [Example 425, (S)—N-(1-(5-(cyclopropanecarbonyl)-5,6,7,8-tetrahydro-1,5-naphthyridin-2-yl)-2,2,2-trifluoroethyl)-4-fluorobenzamide], in that order: 235 nM and 29 nM.
For `Cc1nccc(N2CCCc3nc(C4(C(=O)Nc5ccc(F)cc5)CC(O)C4)ccc32)n1` (centres unmarked) [Example 426, 2-(1-((4-fluorophenyl)carbamoyl)-3-hydroxycyclobutyl)-5-(2-methylpyrimidin-4-yl)-5,6,7,8-tetrahydro-1,5-naphthyridin-1-ium 2,2,2-trifluoroacetate], in that order: 71 nM and 1000 nM.
With `Cc1nccc(N2CCCCc3nc(C4(NC(=O)c5ccc(F)cc5)CC4)ccc32)n1` [Example 432, 4-fluoro-N-(1-(5-(2-methylpyrimidin-4-yl)-6,7,8,9-tetrahydro-5H-pyrido[3,2-b]azepin-2-yl)cyclopropyl)benzamide], the IC50 in experiment [1] (value in running text, read-out: Hela Cell IC50) came to 3.3 nM; in experiment [2], 4 nM.
